Experimental data from paper PMC5898815 (Journal of medicinal chemistry, 2018).
Like-named read-outs stand apart in the source and are kept apart here. Blank lines part the entries; values can stand above or below the compound they belong to.

Assays:
PAMPA permeability = format: in vitro ADME
[1] = biological target: DCN1-UBE2M protein-protein interaction (Homo sapiens, UniProt Q96GG9); format: binding
DCN1 and DCN2 = test: Pulse-chase isoform selectivity, NEDD8 transfer from UBE2M to CUL2; format: biochemical, human; conditions: pulse-chase assay against all five DCN family members
RBX1 = RBX1 (Homo sapiens, UniProt P62877); test: DCN1-independent neddylation of cullins catalyzed solely by RBX1; format: biochemical
NEDD8 E1 enzyme = biological target: T1, NEDD8 E1 enzyme (Homo sapiens, UniProt Q13564+Q8TBC4); test: Inhibition of the NEDD8 E1 activating enzyme; format: biochemical; conditions: concentrations as high as 50 μM
T1 sequence (Q8TBC4 1-463): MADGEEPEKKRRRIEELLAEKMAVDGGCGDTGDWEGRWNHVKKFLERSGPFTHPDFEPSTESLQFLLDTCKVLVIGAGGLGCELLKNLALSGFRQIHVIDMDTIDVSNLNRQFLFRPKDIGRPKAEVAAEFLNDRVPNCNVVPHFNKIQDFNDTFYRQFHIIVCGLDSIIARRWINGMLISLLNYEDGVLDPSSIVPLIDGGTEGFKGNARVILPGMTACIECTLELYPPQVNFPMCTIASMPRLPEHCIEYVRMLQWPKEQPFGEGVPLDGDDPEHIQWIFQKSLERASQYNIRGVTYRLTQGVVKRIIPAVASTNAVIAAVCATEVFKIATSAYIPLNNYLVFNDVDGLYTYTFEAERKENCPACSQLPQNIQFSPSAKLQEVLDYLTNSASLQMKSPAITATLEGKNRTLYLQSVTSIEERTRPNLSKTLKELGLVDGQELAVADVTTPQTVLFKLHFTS
T1 sequence (Q13564 1-534): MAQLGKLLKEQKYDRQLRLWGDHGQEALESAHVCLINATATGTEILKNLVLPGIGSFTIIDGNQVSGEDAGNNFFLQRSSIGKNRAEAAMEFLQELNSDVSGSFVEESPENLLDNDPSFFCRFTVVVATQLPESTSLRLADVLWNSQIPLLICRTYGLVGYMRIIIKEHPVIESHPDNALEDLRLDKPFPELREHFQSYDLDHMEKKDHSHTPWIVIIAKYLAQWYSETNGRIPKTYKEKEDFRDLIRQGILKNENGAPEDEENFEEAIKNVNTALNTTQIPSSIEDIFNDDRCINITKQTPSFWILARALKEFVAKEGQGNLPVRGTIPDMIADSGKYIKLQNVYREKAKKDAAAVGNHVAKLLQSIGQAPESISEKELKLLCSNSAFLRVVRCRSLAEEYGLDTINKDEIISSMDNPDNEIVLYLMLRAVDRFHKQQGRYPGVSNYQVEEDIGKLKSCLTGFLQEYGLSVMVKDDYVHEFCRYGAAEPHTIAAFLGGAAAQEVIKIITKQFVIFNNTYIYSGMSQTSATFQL

DCN1 [2] = biological target: T2, DCN1 (Homo sapiens, UniProt Q96GG9); format: biochemical
Target sequence in this assay (Q96GG9 62-259 limits assumed): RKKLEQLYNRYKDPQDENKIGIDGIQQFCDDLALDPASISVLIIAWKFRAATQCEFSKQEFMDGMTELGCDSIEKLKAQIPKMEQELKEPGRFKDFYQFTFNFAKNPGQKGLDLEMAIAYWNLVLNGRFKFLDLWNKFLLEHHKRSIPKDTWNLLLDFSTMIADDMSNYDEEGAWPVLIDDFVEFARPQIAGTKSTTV

[3] = tested on: cullin neddylation in HCC95 cells; test: Western blot for inhibition of cellular cullin neddylation in HCC95 cells; format: cell-based; conditions: for Inhibition of cullin neddylation in HCC95 cells / Steady-state level of cullin neddylation for CUL1 and CUL3 / Steady-state level of cullin neddylation for CUL2, CUL4A and CUL5: 20 μM; for Inhibition of cullin neddylation in HCC95 cells: dosing at T = 0 and 24 hr, 48 hours; for Steady-state level of cullin neddylation for CUL1 and CUL3 / Steady-state level of cullin neddylation for CUL2, CUL4A and CUL5: HCC95 cells; for Accumulation of well-recognized proteasomal targets (immunoblot): acute pharmacological inhibition, Supplementary Figure 6
DCN1 [4] = biological target: T2, DCN1; format: cell-based; conditions: HCC95 cells, 10 μM, 1 h, 53 °C
Target sequence in this assay (Q96GG9 whole entry): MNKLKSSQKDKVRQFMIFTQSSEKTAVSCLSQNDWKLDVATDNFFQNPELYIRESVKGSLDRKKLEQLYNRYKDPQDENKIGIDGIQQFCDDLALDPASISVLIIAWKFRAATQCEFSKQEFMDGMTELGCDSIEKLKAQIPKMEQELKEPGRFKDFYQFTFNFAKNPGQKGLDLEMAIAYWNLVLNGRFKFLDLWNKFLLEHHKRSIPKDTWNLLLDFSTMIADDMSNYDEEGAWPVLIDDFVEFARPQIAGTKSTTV

HCC95 cells = test: In vitro proliferation assay, HCC95 cells; format: cell-based
DCN3-5 = test: Pulse-chase isoform selectivity, NEDD8 transfer from UBE2M to CUL2; format: biochemical, human; conditions: at 50 μM
[5] = tested on: total cellular ubiquitination; conditions: cited from earlier work
[6] = biological target: UBE2M (N-acetylated) (Homo sapiens) (UniProt P61081); conditions: cited from earlier work
Chain of UBE2M (N-acetylated) (Homo sapiens) (P61081 whole entry): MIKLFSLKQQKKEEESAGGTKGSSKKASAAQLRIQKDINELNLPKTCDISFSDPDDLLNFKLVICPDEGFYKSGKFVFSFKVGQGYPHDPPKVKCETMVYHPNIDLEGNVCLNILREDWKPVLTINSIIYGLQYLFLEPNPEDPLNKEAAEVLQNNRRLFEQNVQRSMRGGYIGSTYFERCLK

Chain of RBX1 (P62877 whole entry, species assumed): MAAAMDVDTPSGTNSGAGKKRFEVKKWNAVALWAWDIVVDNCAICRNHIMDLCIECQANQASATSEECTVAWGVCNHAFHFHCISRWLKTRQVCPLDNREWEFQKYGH
Chain of RBX1 (Q13617 whole entry partner, species assumed): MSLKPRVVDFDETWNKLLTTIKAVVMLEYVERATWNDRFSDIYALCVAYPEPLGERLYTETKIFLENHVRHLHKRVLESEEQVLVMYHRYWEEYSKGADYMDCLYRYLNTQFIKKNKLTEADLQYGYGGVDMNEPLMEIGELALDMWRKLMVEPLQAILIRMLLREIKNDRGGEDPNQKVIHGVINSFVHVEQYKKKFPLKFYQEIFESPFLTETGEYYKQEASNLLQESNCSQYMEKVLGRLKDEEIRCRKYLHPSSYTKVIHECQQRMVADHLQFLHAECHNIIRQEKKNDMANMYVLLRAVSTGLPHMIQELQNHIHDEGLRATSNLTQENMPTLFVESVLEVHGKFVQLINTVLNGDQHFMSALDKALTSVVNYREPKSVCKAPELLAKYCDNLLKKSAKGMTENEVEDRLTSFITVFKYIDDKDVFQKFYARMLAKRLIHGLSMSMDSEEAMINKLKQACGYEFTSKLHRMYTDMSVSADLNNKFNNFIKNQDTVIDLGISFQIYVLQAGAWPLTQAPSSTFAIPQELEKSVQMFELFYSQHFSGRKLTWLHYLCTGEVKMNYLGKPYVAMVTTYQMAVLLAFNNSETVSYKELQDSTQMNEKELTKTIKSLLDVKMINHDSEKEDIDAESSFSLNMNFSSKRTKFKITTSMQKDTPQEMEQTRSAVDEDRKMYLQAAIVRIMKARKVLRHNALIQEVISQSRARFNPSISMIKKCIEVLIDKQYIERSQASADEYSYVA
Chain of DCN1-UBE2M protein-protein interaction (Q96GG9 62-259 limits assumed): as the sequence (Q96GG9 62-259 limits assumed) above
Chain of DCN1 (from UniProt Q96GG9) (Q96GG9 whole entry): as the sequence (Q96GG9 whole entry) above

Pampa (PAMPA permeability): 1200 ± 35 ×10^−6 cm/s
Compound: Cc1ccccc1CN1CCC(NC(=O)Nc2cccc(C(F)(F)F)c2)CC1 [Compound 13]

Pampa (PAMPA permeability): 1500 ± 1 ×10^−6 cm/s
Compound: O=C(Nc1cccc(C(F)(F)F)c1)NC1CCN(Cc2ccccc2F)CC1 [Compound 15]

Pampa (PAMPA permeability): >0.0022 cm/s
Compound: Cc1cccc(CN2CCC(NC(=O)Nc3cccc(C(F)(F)F)c3)CC2)c1 [Compound 16]

Pampa (PAMPA permeability): 1700 ± 1 ×10^−6 cm/s
Compound: O=C(Nc1cccc(C(F)(F)F)c1)NC1CCN(Cc2cccc(Cl)c2)CC1 [Compound 17]

Pampa (PAMPA permeability): >0.0022 cm/s
Compound: O=C(Nc1cccc(C(F)(F)F)c1)NC1CCN(Cc2cccc(F)c2)CC1 [Compound 18]

Pampa (PAMPA permeability): >0.0022 cm/s
Compound: Cc1ccc(CN2CCC(NC(=O)Nc3cccc(C(F)(F)F)c3)CC2)cc1 [Compound 19]

Pampa (PAMPA permeability): 1300 ± 43 ×10^−6 cm/s
Compound: O=C(Nc1cccc(C(F)(F)F)c1)NC1CCN(Cc2ccc(Cl)cc2)CC1 [Compound 20]

Pampa (PAMPA permeability): >0.0022 cm/s
Compound: O=C(Nc1cccc(C(F)(F)F)c1)NC1CCN(Cc2ccc(F)cc2)CC1 [Compound 21]

Pampa (PAMPA permeability): 1400 ± 250 ×10^−6 cm/s
Compound: O=C(Nc1ccccc1)NC1CCN(Cc2ccccc2)CC1 [Compound 23]

Pampa (PAMPA permeability): >0.0022 cm/s
Compound: Cc1ccc(NC(=O)NC2CCN(Cc3ccccc3)CC2)cc1Cl [Compound 25]

Compound: Cc1cccc(NC(=O)NC2CCN(Cc3ccccc3)CC2)c1 [Compound 26]
Potency in the TR-FRET assay (in words) [1]: practically inactive

Pampa (PAMPA permeability): >0.0022 cm/s
Compound: Cn1nccc1-c1cccc(NC(=O)NC2CCN(Cc3ccccc3)CC2)c1 [Compound 32]

Compound: CC(=O)O[C@H]1CN(Cc2ccccc2)CC[C@@H]1NC(=O)Nc1cccc(C(F)(F)F)c1 [Compound 34, (3S,4S)-1-benzyl-4-(3-(3-(trifluoromethyl)phenyl)ureido)piperidin-3-yl acetate]
Potency in the TR-FRET assay (in words) [1]: did not possess improved potency compared to our initial HTS hit 1

Pampa (PAMPA permeability): 1600 ±170 ×10^−6 cm/s
Compound: CCCN1CCC(N(CCC)C(=O)Nc2cccc(C(F)(F)F)c2)CC1 [Compound 35]

Pampa (PAMPA permeability): >0.0022 cm/s
Compound: CCCCN(C(=O)Nc1cccc(C(F)(F)F)c1)C1CCN(CCC)CC1 [Compound 36]

Pampa (PAMPA permeability): 1900±200 ×10^−6 cm/s
Compound: CCCN1CCC(N(CC(C)C)C(=O)Nc2cccc(C(F)(F)F)c2)CC1 [Compound 37]

Pampa (PAMPA permeability): 1500 ±5.4 ×10^−6 cm/s
Compound: CCCN1CCC(N(CCC(C)C)C(=O)Nc2cccc(C(F)(F)F)c2)CC1 [Compound 38]

Pampa (PAMPA permeability): 1600 ± 1 ×10^−6 cm/s
Compound: CCCN1CCC(N(CCOC)C(=O)Nc2cccc(C(F)(F)F)c2)CC1 [Compound 39]

Pampa (PAMPA permeability): >0.0022 cm/s
Compound: CCCN1CCC(N(CC2CCCCC2)C(=O)Nc2cccc(C(F)(F)F)c2)CC1 [Compound 40]

Pampa (PAMPA permeability): >0.0022 cm/s
Compound: CCCN1CCC(N(Cc2ccco2)C(=O)Nc2cccc(C(F)(F)F)c2)CC1 [Compound 41]

Compound: CCCN1CCC(N(Cc2ccccc2)C(=O)Nc2cccc(C(F)(F)F)c2)CC1 [Compound 42]
Pampa (PAMPA permeability): 1800 ± 1 ×10^−6 cm/s
Selectivity for inhibiting neddylation activity of DCN1 and DCN2 over DCN3-5 (DCN1 and DCN2): selective and approximately equipotent inhibition

Pampa (PAMPA permeability): 1300 ±79 ×10^−6 cm/s
Compound: CCCN1CCC(N(Cc2cccnc2)C(=O)Nc2cccc(C(F)(F)F)c2)CC1 [Compound 43]

Pampa (PAMPA permeability): >0.0022 cm/s
Compound: CCCN1CCC(N(Cc2ccc3c(c2)OCO3)C(=O)Nc2cccc(C(F)(F)F)c2)CC1 [Compound 45, 1-(benzo[d][1,3]dioxol-5-ylmethyl)-1-(1-propylpiperidin-4-yl)-3-(3-(trifluoromethyl)phenyl)urea]

Compound: CCCN1CCC(N(Cc2cc(F)cc(C(F)(F)F)c2)C(=O)Nc2cccc(C(F)(F)F)c2)CC1 [Compound 46]
Pampa (PAMPA permeability): >0.0022 cm/s
Inhibition of DCN1-independent neddylation of cullins catalyzed solely by RBX1 (RBX1): do not inhibit

Pampa (PAMPA permeability): >0.0022 cm/s
Compound: O=C(Nc1cccc(C(F)(F)F)c1)N(Cc1ccccc1)C1CCNCC1 [Compound 47]

Compound: CCCCN1CCC(N(Cc2ccccc2)C(=O)Nc2cccc(C(F)(F)F)c2)CC1 [Compound 49, 1-benzyl-1-(1-butylpiperidin-4-yl)-3-(3-(trifluoromethyl)phenyl)urea]
Inhibition of the E1 activating enzyme for NEDD8 (NEDD8 E1 enzyme): do not inhibit
Pampa (PAMPA permeability): >0.0022 cm/s
Inhibition of DCN1 stimulated NEDD8 transfer from UBE2F to the cullins (DCN1 [2]): inhibit
Inhibition of DCN1-independent neddylation of cullins catalyzed solely by RBX1 (RBX1): do not inhibit
Inhibition of cullin neddylation in HCC95 cells [3]: inhibited neddylation
Steady-state level of cullin neddylation for CUL1 and CUL3 [3]: selectively decreases
Steady-state level of cullin neddylation for CUL2, CUL4A and CUL5 [3]: relatively unaffected
Accumulation of well-recognized proteasomal targets (immunoblot) [3]: failed to cause gross accumulation
Thermal stability of the DCN1 protein (CETSA) (DCN1 [4]): clearly enhanced
Growth inhibition of monolayer cultures at 20 μM (HCC95 cells): only minimally growth inhibitory

Pampa (PAMPA permeability): 1400 ± 540 ×10^−6 cm/s
Compound: CCCCCN1CCC(N(Cc2ccccc2)C(=O)Nc2cccc(C(F)(F)F)c2)CC1 [Compound 50]

Compound: CCCC(C)N1CCC(N(Cc2ccccc2)C(=O)Nc2cccc(C(F)(F)F)c2)CC1 (stereo not shown) [Compound 52, 1-benzyl-1-(1-(pentan-2-yl)piperidin-4-yl)-3-(3-(trifluoromethyl)phenyl)urea]
Inhibition of the E1 activating enzyme for NEDD8 (NEDD8 E1 enzyme): do not inhibit
Pampa (PAMPA permeability): 1400 ±39 ×10^−6 cm/s
Inhibition of DCN1 stimulated NEDD8 transfer from UBE2F to the cullins (DCN1 [2]): inhibit
Inhibition of DCN1-independent neddylation of cullins catalyzed solely by RBX1 (RBX1): do not inhibit
Inhibition of cullin neddylation in HCC95 cells [3]: inhibited neddylation
Steady-state level of cullin neddylation for CUL1 and CUL3 [3]: selectively decreases
Steady-state level of cullin neddylation for CUL2, CUL4A and CUL5 [3]: relatively unaffected
Accumulation of well-recognized proteasomal targets (immunoblot) [3]: failed to cause gross accumulation
Inhibition of neddylation activity of DCN3-5 (DCN3-5): slight activity
Thermal stability of the DCN1 protein (CETSA) (DCN1 [4]): clearly enhanced
Growth inhibition of monolayer cultures at 20 μM (HCC95 cells): only minimally growth inhibitory

Pampa (PAMPA permeability): <1e-06 cm/s
Compound: O=C(Nc1cccc(C(F)(F)F)c1)N(Cc1ccccc1)C1CCN(CC2CCCCC2)CC1 [Compound 58]

Pampa (PAMPA permeability): <1e-06 cm/s
Compound: CCCS(=O)(=O)N1CCC(N(Cc2ccccc2)C(=O)Nc2cccc(C(F)(F)F)c2)CC1 [Compound 61]

Pampa (PAMPA permeability): <1e-06 cm/s
Compound: CCCCS(=O)(=O)N1CCC(N(Cc2ccccc2)C(=O)Nc2cccc(C(F)(F)F)c2)CC1 [Compound 62]

Compound: O=C(Nc1cccc(C(F)(F)F)c1)N(Cc1ccccc1)C1CCN(Cc2cccnc2)CC1 [Compound 67]
Pampa (PAMPA permeability; mean ± SD): >0.0022 cm/s

Compound: O=C(Nc1cccc(C(F)(F)F)c1)N(Cc1ccccc1)C1CCN(Cc2ccc(F)cc2)CC1 [Compound 68]
Pampa (PAMPA permeability; mean ± SD): >0.0022 cm/s

Compound: O=C(Nc1cccc(C(F)(F)F)c1)N(Cc1ccccc1)C1CCN(Cc2ccc3c(c2)OCO3)CC1 [Compound 70]
Pampa (PAMPA permeability; mean ± SD): >0.0022 cm/s

Compound: O=C(Nc1cccc(C(F)(F)F)c1)N(Cc1ccccc1)C1CCN(Cc2ccc3c(c2)OCCO3)CC1 [Compound 71]
Pampa (PAMPA permeability; mean ± SD): >0.0022 cm/s

Compound: CC(C)(C)N1CCC(N(Cc2ccc3c(c2)OCO3)C(=O)Nc2cccc(C(F)(F)F)c2)CC1 [Compound 73]
Inhibition of DCN1-independent neddylation of cullins catalyzed solely by RBX1 (RBX1): do not inhibit

Compound: CCCCN1CCC(N(Cc2ccccc2)C(=O)Nc2cccnc2)CC1 [NAcM-NEG, reference compound]
Thermal stability of the DCN1 protein (CETSA) (DCN1 [4]): largely degraded

Compound: NS(=O)(=O)OC[C@@H]1C[C@@H](n2ccc3c(N[C@H]4CCc5ccccc54)ncnc32)C[C@@H]1O [Pevonedistat, reference compound]
Reduction of total cellular ubiquitination [5]: 10-20%
Inhibition of cullin neddylation in cells by positive control ([3]; MLN4924 1 μM, single dose, 48 hours (Figure 7)): completely inhibits all cullin neddylation

Compound: DCN1 (from UniProt Q96GG9)
Kd [6]: 1 µM
